Assay results reported in article PMC7248897, “Synthesis, Biological Evaluation and In Silico Studies of Certain Oxindole–Indole Conjugates as Anticancer CDK Inhibitors” (Molecules, 2020).
Entries after “also recorded” stand apart in the source; their conditions may differ. Read-outs that look alike come from different tables or passages of the source.

How the values were obtained:
[1] = target: T1, CDK4 (Homo sapiens, UniProt P11802); assay: CDK4 kinase inhibition (Reaction Biology HotSpot); assay type: biochemical; details: for inhibition at 20 µM: single dose of 20 µM
T1 construct: purchased Reaction Biology Corp. (Kinase HotSpot service)
T1 sequence (P11802 whole entry): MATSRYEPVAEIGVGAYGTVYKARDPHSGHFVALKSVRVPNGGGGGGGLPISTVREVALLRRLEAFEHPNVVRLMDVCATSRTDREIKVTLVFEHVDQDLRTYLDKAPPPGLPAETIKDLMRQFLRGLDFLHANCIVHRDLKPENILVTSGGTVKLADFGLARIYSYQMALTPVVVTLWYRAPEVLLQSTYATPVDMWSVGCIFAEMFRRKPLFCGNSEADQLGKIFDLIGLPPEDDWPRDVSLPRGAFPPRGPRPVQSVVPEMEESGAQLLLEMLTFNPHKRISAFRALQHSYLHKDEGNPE
T1 sequence (P24385 whole entry partner): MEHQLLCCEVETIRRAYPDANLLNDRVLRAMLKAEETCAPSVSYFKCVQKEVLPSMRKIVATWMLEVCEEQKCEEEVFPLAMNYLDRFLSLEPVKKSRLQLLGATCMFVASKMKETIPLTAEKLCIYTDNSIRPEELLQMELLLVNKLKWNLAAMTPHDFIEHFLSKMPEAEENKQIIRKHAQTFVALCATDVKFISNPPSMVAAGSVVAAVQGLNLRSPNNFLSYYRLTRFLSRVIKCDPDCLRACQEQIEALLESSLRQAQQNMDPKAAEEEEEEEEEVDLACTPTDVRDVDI
Text: (§1) 5. CDK Kinase Inhibitory Activity
(§2) along with required cofactors.
(§3) Kinase activity data were
(§4) (dimethyl sulfoxide) reactions.

[2] = target: CDK9 (Homo sapiens, UniProt P50750); assay: CDK9 kinase inhibition (Reaction Biology HotSpot); details: read-out: % Enzyme Inhibitory Activity CDK9
Sequence of CDK9 (P50750 whole entry): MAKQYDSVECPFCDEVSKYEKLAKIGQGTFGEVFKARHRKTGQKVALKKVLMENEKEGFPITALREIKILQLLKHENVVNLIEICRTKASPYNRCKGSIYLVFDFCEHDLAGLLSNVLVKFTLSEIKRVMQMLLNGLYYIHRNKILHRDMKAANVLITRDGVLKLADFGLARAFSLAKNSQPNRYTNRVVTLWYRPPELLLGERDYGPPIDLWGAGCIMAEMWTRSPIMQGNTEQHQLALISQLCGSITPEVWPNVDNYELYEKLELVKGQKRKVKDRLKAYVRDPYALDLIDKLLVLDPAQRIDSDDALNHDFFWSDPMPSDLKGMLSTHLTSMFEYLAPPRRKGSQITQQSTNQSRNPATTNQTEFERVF
Sequence of CDK9 (O60563 whole entry partner): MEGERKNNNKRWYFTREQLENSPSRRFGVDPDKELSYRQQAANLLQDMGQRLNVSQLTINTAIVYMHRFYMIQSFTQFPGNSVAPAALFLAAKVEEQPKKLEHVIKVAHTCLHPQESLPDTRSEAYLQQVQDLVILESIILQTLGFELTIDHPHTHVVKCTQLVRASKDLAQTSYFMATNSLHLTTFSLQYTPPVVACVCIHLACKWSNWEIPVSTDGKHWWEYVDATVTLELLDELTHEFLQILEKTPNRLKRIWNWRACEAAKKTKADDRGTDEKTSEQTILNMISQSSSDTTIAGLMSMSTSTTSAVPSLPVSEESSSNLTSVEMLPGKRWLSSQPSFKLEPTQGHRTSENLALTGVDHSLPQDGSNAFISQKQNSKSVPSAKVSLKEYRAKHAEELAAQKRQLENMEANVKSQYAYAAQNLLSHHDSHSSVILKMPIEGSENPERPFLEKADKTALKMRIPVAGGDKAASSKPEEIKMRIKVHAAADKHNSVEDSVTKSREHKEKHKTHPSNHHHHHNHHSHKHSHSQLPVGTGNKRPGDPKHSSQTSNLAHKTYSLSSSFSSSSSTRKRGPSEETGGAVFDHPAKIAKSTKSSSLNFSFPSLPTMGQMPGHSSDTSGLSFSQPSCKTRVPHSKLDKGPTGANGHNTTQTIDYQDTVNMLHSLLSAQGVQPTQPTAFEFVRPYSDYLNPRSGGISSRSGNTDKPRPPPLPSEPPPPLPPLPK
Protocol: The in vitro CDK kinase inhibition assay was performed by Reaction Biology Corp. (PA, USA) (http://www.reactionbiology.com) Kinase HotSpotSM service.
Reaction Biology Corp. Kinase HotSpotSM service (http://www.reactionbiology.com)
was used for screening of tested compounds. CDK Kinase inhibitory activities were
assessed by the HotSpot assay platform, which contained specific kinase/substrate pairs
along with required cofactors. Base reaction buffer: 20 mM Hepes (pH 7.5), 10 mM MgCl2,
Testing compounds were dissolved in 100% DMSO to specific concentration. The serial
dilution was conducted by Integra Viaflo Assist in DMSO. The reaction mixture containing the examined compound and 33P-ATP was incubated at room temperature for
2 h and radioactivity was detected by filter-binding method. Kinase activity data were
expressed as the percent remaining kinase activity in test samples compared to vehicle

[3] = test system: MDA-MB-231 breast cancer cell line; assay: SRB anti-proliferative assay, MDA-MB-231; assay type: cell-based, human; details: for IC50 / IC50 MDA-MB-231: mean ± S.D. from 3 separate experiments
Protocol: (§5) Cytotoxicity was assessed following the SRB colorimetric assay protocol, as reported earlier.
(§6) 1. Anti-proliferative action toward human breast cell lines […]
(§7) have been obtained from American Type Culture Collection (ATCC). The cells were maintained in Dulbecco's modified Eagle's medium (DMEM) supplemented with 10% heat inactivated fetal calf serum (GIBCO), penicillin (100 U/ml) and streptomycin (100 µg/ml) at 37 °C in humidified atmosphere containing 5% CO2. Cells at a concentration of […]
(§8) The anti-proliferative activity of the tested hybrids 6a-i, 9a-f and 11a, b was measured in vitro using the Sulfo-Rhodamine-B stain (SRB) assay. Briefly, Cells were inoculated in 96-well microtiter plate (5X104 cells/ well) for 24 h before treatment with the tested compounds to allow attachment of cell to the wall of the plate. Tested compounds were dissolved in DMSO at 1 mg/ml immediately before use and diluted to the appropriate volume just before addition to the cell culture. Different concentrations of tested compounds, doxorubicin and sorafenib were added to the cells (three wells were prepared for each individual dose). Cells were incubated with the compounds for 48 h at 37°C and in atmosphere of 5% CO2. After 48 h cells were fixed, washed, and stained for 30 min with 0.4% (w/v) SRB dissolved in 1% acetic acid. Unbound dye was removed by four washes with 1% acetic acid, and attached stain was recovered with Tris-EDTA buffer.
(§9) Color intensity was measured in an ELISA reader. […]

[4] = target: T2, CDK2 (Homo sapiens, UniProt P24941); assay: CDK2 kinase inhibition (Reaction Biology HotSpot); assay type: biochemical; details: single dose of 20 µM; read-out: % Enzyme Inhibitory Activity CDK2
T2 construct: purchased Reaction Biology Corp. (Kinase HotSpot service)
Text: as §1, §2, §3, §4

[5] = test system: MCF-7 breast cancer cell line; assay: SRB anti-proliferative assay, MCF-7; assay type: cell-based, human; details: for IC50: Homo sapiens, read-out: IC50 MCF-7
Protocol: as §5, §6, §7, §8, §9

[6] = Homo sapiens, MDA-MB-231, SRB assay, 48 h, read-out: IC50 MDA-MB-231
[7] = MCF7, SRB assay, 48 h, mean ± S.D. from 3 separate experiments
[8] = Homo sapiens, MDA-MB-231, 48 h, read-out: IC50 MDA-MB-231, SRB assay, 48 h
[9] = SRB assay, 48 h, mean ± S.D. from 3 separate experiments

| SMILES | inhibition at 20 µM [1] [%] | inhibition at 20 µM [2] [%] | IC50 [3, 6] [µM] | inhibition at 20 µM [4] [%] | IC50 [5, 7] [µM] | other results |
| --- | --- | --- | --- | --- | --- | --- |
| O=C1Nc2ccccc2/C1=N/NC(=O)c1cc2ccccc2[nH]1 [6a] | 92 | 20 | 15.1 ± 0.73 | 78 | 3.12 ± 0.14 | IC50 [1]: 1.82 µM |
| O=C1Nc2ccc(F)cc2/C1=N/NC(=O)c1cc2ccccc2[nH]1 [6b] | 33 | 7 | 6.36 ± 0.29 | 48 | 6 ± 0.32 |  |
| O=C1Nc2ccc(Cl)cc2/C1=N/NC(=O)c1cc2ccccc2[nH]1 [6c] | 28 | 11 | 9.48 ± 0.44 | ≥ 50 | 2.72 ± 0.17 |  |
| O=C1Nc2ccc(Br)cc2/C1=N/NC(=O)c1cc2ccccc2[nH]1 [6d] | 43 | 32 | 18.3 ± 0.71 | 85 | 3.31 ± 0.11 |  |
| O=C1Nc2ccc(OC(F)(F)F)cc2/C1=N/NC(=O)c1cc2ccccc2[nH]1 [6g] | 19 | 4 | 7.19 ± 0.38 | 14 | 5.07 ± 0.21 |  |
| O=C1Nc2ccc([N+](=O)[O-])cc2/C1=N/NC(=O)c1cc2ccccc2[nH]1 [6h] | 46 | 10 | 1.85 ± 0.07 | ≥ 50 | 21.4 ± 1.58 | fold potency compared to staurosporine ([3]; MDA-MB-231, ratio of IC50 values): 5.56 fold |
| Cc1cc(C)c2c(c1)/C(=N/NC(=O)c1cc3ccccc3[nH]1)C(=O)N2 [6i] |  |  | > 100 |  | 47.2 ± 3.02 | IC50 MDA-MB-231 ([3]; SRB assay, 48 h): no activity |
| CN1C(=O)/C(=N\NC(=O)c2cc3ccccc3[nH]2)c2ccccc21 [9a] | 20 | 13 | 8.39 ± 0.27 | 41 | 5.5 ± 0.28 |  |
| CCCN1C(=O)/C(=N\NC(=O)c2cc3ccccc3[nH]2)c2ccccc21 [9b] |  |  |  |  |  | IC50 [3, 8]: 18.2 ± 0.85 µM; IC50 ([3]; read-out: IC50 MDA-MB-231, SRB assay, 48 h): 18.5 ± 0.85 µM; IC50 ([5]; MCF7, 48 h): 40.9 ± 3.17 µM |
| CCOC(=O)CN1C(=O)/C(=N\NC(=O)c2cc3ccccc3[nH]2)c2ccccc21 [9c] |  |  | > 100 |  | 67.5 ± 3.02 | IC50 MDA-MB-231 ([3]; SRB assay, 48 h): no anti-proliferative activity |
| O=C(N/N=C1\C(=O)N(Cc2ccccc2)c2ccccc21)c1cc2ccccc2[nH]1 [9d] |  |  |  |  |  | IC50 [3, 8]: 6.5 ± 0.39 µM; IC50 ([5]; MCF7, 48 h): 9.56 ± 0.61 µM |
| O=C(N/N=C1\C(=O)N(Cc2ccc(F)cc2)c2ccccc21)c1cc2ccccc2[nH]1 [9e] | 12 | 9 |  | 5 |  | IC50 [3, 8]: 1.03 ± 0.04 µM; IC50 ([5]; MCF7, 48 h): 3.7 ± 0.19 µM |
| CCCN1C(=O)/C(=N\NC(=O)c2cc3ccccc3[nH]2)c2cc(Cl)ccc21 [9f] |  |  |  |  |  | IC50 [3, 8]: 9.44 ± 0.35 µM; IC50 ([5]; MCF7, 48 h): 19.3 ± 0.65 µM |
| O=C(NN=C1Cc2ccccc2C1)c1cc2ccccc2[nH]1 [11a] |  |  | > 100 |  | 84.7 ± 4.02 | IC50 MDA-MB-231 ([3]; SRB assay, 48 h): no activity; also recorded: did not exert any significant anti-proliferative action; IC50 MCF-7 [5, 9]: did not exert any significant anti-proliferative action |
| O=C(N/N=C1\CCCc2ccccc21)c1cc2ccccc2[nH]1 [11b] |  |  | > 100 |  | > 100 | IC50 MDA-MB-231 ([3]; SRB assay, 48 h): no activity; also recorded: did not exert any significant anti-proliferative action; IC50 MCF-7 [5, 9]: did not exert any significant anti-proliferative action |
| CN[C@@H]1C[C@H]2O[C@@](C)([C@@H]1OC)n1c3ccccc3c3c4c(c5c6ccccc6n2c5c31)C(=O)NC4 [Staurosporine, reference compound] |  | 98 |  |  |  |  |
